Common to all, as to format: biochemical
One assay has as its target T1, MMP-1 (Homo sapiens, UniProt P03956).
T1 construct: purchased R&D Systems 901-MP
T1 sequence (P03956 100-469): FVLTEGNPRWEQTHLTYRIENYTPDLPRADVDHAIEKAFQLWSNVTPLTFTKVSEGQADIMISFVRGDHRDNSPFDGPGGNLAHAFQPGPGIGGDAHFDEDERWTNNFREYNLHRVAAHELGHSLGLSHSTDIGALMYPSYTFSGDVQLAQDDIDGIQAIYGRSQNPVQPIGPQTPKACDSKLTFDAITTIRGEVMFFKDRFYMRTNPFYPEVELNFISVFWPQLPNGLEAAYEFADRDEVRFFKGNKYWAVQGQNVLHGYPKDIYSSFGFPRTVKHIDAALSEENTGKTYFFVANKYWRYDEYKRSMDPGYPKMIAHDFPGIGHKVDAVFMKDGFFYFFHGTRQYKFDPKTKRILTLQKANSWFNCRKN
Description: In vitro MMP-1 inhibition test. The procedure, abridged: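 APMA-activated recombinant enzyme (e.g. 2 nM final) in 50 mM Tris/HCl pH 7.5, 10 mM CaCl2, 150 mM NaCl, 0.05% Brij-35 with compound in DMSO (e.g. 1 nM–30 μM). Quenched Mca-Pro-Leu-Gly-Leu-Dpa(Dnp)-Ala-Arg-NH2 substrate (e.g. 10 μM) started reaction; fluorescence (ex 320/em 410 nm) followed e.g. 120 min at 32° C; IC50 at 50% signal.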

The next assay has as its target T2, MMP-3 (Homo sapiens, UniProt P08254).
T2 construct: purchased R&D Systems 513-MP
Description: In vitro MMP-3 inhibition test. In outline: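 APMA-activated recombinant MMP-3 (e.g. 2 nM final) preincubated with compound in 50 mM Tris/HCl pH 7.5, 10 mM CaCl2, 150 mM NaCl, 0.05% Brij-35; quenched Mca/Dnp peptide substrate (e.g. 10 μM) started the reaction. Fluorescence (ex 320/em 410 nm) followed e.g. 120 min at 32° C; IC50 at 50% signal.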

Another assay concerns the target T3, MMP-7 (Homo sapiens, UniProt P09237).
T3 construct: purchased R&D Systems 907-MP
T3 sequence (P09237 95-267): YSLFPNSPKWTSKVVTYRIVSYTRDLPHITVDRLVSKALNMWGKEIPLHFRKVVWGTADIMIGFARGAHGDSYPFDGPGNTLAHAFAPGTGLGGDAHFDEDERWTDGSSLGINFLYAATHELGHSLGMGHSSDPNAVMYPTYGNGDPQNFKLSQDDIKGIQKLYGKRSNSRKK
The assay can be described thus: In vitro MMP-7 inhibition test. The procedure, abridged: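 APMA-activated recombinant MMP-7 (e.g. 0.5 nM final) in Tris/HCl pH 7.5 with CaCl2, NaCl and Brij-35; started with quenched fluorogenic Mca-PLGL-Dpa(Dnp)-AR-NH2 substrate (e.g. 10 μM final). Fluorescence (ex 320/em 410 nm) followed e.g. over 120 min at 32° C; IC50 is the concentration giving 50% signal.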

The next assay concerns the target T4, MMP-8 (Homo sapiens, UniProt P22894).
T4 construct: purchased R&D Systems 908-MP
Description: In vitro MMP-8 inhibition test. In outline: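 APMA-activated recombinant MMP-8 (final e.g. 0.5 nM) preincubated with compound in DMSO (e.g. 1 nM–30 μM) in 50 mM Tris/HCl pH 7.5, 10 mM CaCl2, 150 mM NaCl, 0.05% Brij-35. Reaction started with quenched Mca-Pro-Leu-Gly-Leu-Dpa(Dnp)-Ala-Arg-NH2 substrate (e.g. 10 μM); fluorescence (ex 320/em 410 nm) followed e.g. 120 min at 32° C; IC50 at 50% signal.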

T2 sequence (P08254 100-477): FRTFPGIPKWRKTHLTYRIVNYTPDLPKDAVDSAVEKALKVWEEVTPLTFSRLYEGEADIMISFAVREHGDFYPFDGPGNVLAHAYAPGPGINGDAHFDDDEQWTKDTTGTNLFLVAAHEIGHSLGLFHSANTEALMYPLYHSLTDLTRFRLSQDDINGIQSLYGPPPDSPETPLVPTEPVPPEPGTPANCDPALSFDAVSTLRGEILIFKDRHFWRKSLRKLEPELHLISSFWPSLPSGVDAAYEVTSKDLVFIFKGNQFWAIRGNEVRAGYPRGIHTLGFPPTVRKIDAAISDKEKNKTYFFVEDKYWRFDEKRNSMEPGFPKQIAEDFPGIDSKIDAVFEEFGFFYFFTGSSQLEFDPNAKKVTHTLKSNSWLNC
T4 sequence (P22894 101-467): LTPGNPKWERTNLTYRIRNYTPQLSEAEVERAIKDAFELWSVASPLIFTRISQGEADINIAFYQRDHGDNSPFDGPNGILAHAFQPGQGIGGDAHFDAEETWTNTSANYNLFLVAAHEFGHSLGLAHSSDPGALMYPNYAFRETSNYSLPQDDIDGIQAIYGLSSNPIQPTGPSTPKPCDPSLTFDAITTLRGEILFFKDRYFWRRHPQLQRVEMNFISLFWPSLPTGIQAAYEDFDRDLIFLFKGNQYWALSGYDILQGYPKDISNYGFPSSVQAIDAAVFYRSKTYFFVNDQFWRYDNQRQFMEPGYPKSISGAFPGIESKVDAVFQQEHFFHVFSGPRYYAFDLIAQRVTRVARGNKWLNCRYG

By IC50 is commonly meant the midpoint of a concentration-inhibition curve. As to `Cc1cccc(COc2ccc(C(=O)[C@H]3CC[C@@H](Cn4nnc5ccc(C(F)(F)F)cc5c4=O)[C@@H]3C(=O)O)cc2)c1` (racemic) [Example 15, (+/−)-(1RS,2RS,5SR)-2-{4-[(3-Methylbenzyl)oxy]benzoyl}-5-{[4-oxo-6-(trifluoromethyl)-1,2,3-benzotriazin-3(4H)-yl]methyl}cyclopentanecarboxylic acid], the IC50 against MMP-1 turned out to be 8300 nM; at MMP-3 it was 220 nM; at MMP-7 it was 120 nM; on MMP-8, 26 nM.
On the same counts, the results for “(+)-(1RS,2RS,5SR)-2-{4-[Cyclohexyl)methyl)sulphanyl]benzoyl}-5-{[4-oxo-6-(trifluoromethyl)-1,2,3-benzotriazin-3(4H)-yl]methyl}cyclopentanecarboxylic acid [Example 86]” are 27000 nM, 1300 nM, 1000 nM and 150 nM.
On the same counts, the results for `Cc1ccc2nnn(C[C@H]3CC[C@@H](C(=O)c4ccc(OCc5ccccc5)cc4)[C@@H]3C(=O)O)c(=O)c2c1` (single isomer, unassigned) [Example 92, (+)-(1RS,2RS,5SR)-2-[4-(Benzyloxy)benzoyl]-5-[(6-methyl-4-oxo-1,2,3-benzotriazin-3(4H)-yl)methyl]cyclopentanecarboxylic acid] are 3100 nM, 150 nM, 110 nM and 2.4 nM.
On to `COc1cccc(COc2ccc(C(=O)[C@@H]3CC[C@H](Cn4nnc5ccc(C)cc5c4=O)[C@H]3C(=O)O)cc2)c1` (single isomer, unassigned) [Example 107, (+)-(1RS,2RS,5SR)-2-{4-[(3-Methoxybenzyl)oxy]benzoyl}-5-[(6-methyl-4-oxo-1,2,3-benzotriazin-3(4H)-yl)methyl]cyclopentanecarboxylic acid], for which the IC50 on MMP-1 was 11000 nM; against MMP-3, 730 nM; at MMP-7, 200 nM; against MMP-8 it was 19 nM.
Turning to `CCCCOc1ccc(C(=O)[C@@H]2CC[C@H](Cn3nnc4ccc(C(F)(F)F)cc4c3=O)[C@H]2C(=O)O)cc1` (single isomer, unassigned) [Example 67, (+)-(1RS,2RS,5SR)-2-(4-Butoxybenzoyl)-5-{[4-oxo-6-(trifluoromethyl)-1,2,3-benzotriazin-3(4H)-yl]methyl}cyclopentanecarboxylic acid], the IC50 was 5200 nM against MMP-1, 140 nM against MMP-3, 120 nM on MMP-7 and 1.6 nM on MMP-8.
On to `O=C(O)[C@H]1[C@H](Cn2nnc3ccc(C(F)(F)F)cc3c2=O)CC[C@@H]1C(=O)c1ccc(OCc2ccccc2)cc1` (racemic) [Example 11, (+/−)-(1RS,2RS,5SR)-2-[4-(Benzyloxy)benzoyl]-5-{[4-oxo-6-(trifluoromethyl)-1,2,3-benzotriazin-3(4H)-yl]methyl}cyclopentanecarboxylic acid], for which the IC50 against MMP-1 amounted to 3800 nM; at MMP-3, 100 nM; against MMP-7, 87 nM; against MMP-8, 3.2 nM.
For the molecule `Cc1ccc2nnn(C[C@H]3CC[C@@H](C(=O)c4ccc(OCc5cccc(OC(F)(F)F)c5)cc4)[C@@H]3C(=O)O)c(=O)c2c1` (single isomer, unassigned) [Example 110, (+)-(1RS,2SR,5RS)-2-[(6-Methyl-4-oxo-1,2,3-benzotriazin-3(4H)-yl)methyl]-5-(4-{[3-(trifluoromethoxy)benzyl]oxy}benzoyl)cyclopentanecarboxylic acid], the IC50 is greater than 40000 nM against MMP-1, 920 nM at MMP-3, 1200 nM against MMP-7 and 120 nM against MMP-8.
For the molecule `Cc1ccc2nnn(C[C@@H]3CC[C@H](C(=O)c4ccc(OCc5cccc(OC(F)(F)F)c5)cc4)[C@H]3C(=O)O)c(=O)c2c1` (racemic) [Example 109, (+/−)-(1RS,2SR,5RS)-2-[(6-Methyl-4-oxo-1,2,3-benzotriazin-3(4H)-yl)methyl]-5-(4-{[3-(trifluoromethoxy)benzyl]oxy}benzoyl)cyclopentanecarboxylic acid], the IC50 is greater than 40000 nM against MMP-1, 840 nM against MMP-3, 1700 nM on MMP-7 and 87 nM against MMP-8.
The matching figures for `O=C(O)[C@@H]1[C@@H](Cn2nnc3ccc(C(F)(F)F)cc3c2=O)CC[C@H]1C(=O)c1ccc(OCc2ccc(Cl)cc2)cc1` (single isomer, unassigned) [Example 25, (+)-(1RS,2RS,5SR)-2-{4-[(4-Chlorobenzyl)oxy]benzoyl}-5-{[4-oxo-6-(trifluoromethyl)-1,2,3-benzotriazin-3(4H)-yl]methyl}cyclopentanecarboxylic acid]: 2300 nM, 63 nM, 120 nM and 0.79 nM.
Regarding `Cc1ccc2nnn(C[C@@H]3CC[C@H](C(=O)c4ccc(OCc5ccccc5)cc4)[C@H]3C(=O)O)c(=O)c2c1` (racemic) [Example 91, (+/−)-(1RS,2RS,5SR)-2-[4-(Benzyloxy)benzoyl]-5-[(6-methyl-4-oxo-1,2,3-benzotriazin-3(4H)-yl)methyl]cyclopentanecarboxylic acid], the IC50 at MMP-1 is 5700 nM; against MMP-3, 190 nM; against MMP-7, 190 nM; against MMP-8 it was 3 nM.
Take `Cc1ccc2nnn(C[C@H]3CC[C@@H](C(=O)c4ccc(OCc5cccc(C(F)(F)F)c5)cc4)[C@@H]3C(=O)O)c(=O)c2c1` (single isomer, unassigned) [Example 101, (+)-(1RS,2SR,5RS)-2-[(6-Methyl-4-oxo-1,2,3-benzotriazin-3(4H)-yl)methyl]-5-(4-{[3-(trifluoromethyl)benzyl]oxy}benzoyl)cyclopentanecarboxylic acid]: the IC50 was 14000 nM against MMP-1, 880 nM against MMP-3, 720 nM against MMP-7 and 29 nM at MMP-8.
In the case of `O=C(O)[C@H]1[C@H](Cn2nnc3ccc(C(F)(F)F)cc3c2=O)CC[C@@H]1C(=O)c1ccc(OCCCc2ccccc2)cc1` (racemic) [Example 39, (+/−)-(1RS,2SR,5RS)-2-{[4-Oxo-6-(trifluoromethyl)-1,2,3-benzotriazin-3(4H)-yl]methyl}-5-[4-(3-phenylpropoxy)benzoyl]cyclopentanecarboxylic acid], the IC50 is greater than 40000 nM against MMP-1, 420 nM at MMP-3, 730 nM at MMP-7 and 290 nM against MMP-8.
Take `O=C(O)[C@H]1[C@H](Cn2nnc3ccc(C(F)(F)F)cc3c2=O)CC[C@@H]1C(=O)c1ccc(OCCCC2CCCCC2)cc1` (racemic) [Example 56, (+/−)-(1RS,2RS,5SR)-2-{4-(3-Cyclohexylpropoxy)benzoyl}-5-{[4-oxo-6-(trifluoromethyl)-1,2,3-benzotriazin-3(4H)-yl]methyl}cyclopentanecarboxylic acid]: the IC50 against MMP-1 is greater than 40000 nM; against MMP-3 it was 2000 nM; on MMP-7 it was 1400 nM; on MMP-8, 580 nM.
`Cc1cccc(COc2ccc(C(=O)[C@H]3CC[C@@H](Cn4nnc5ccc(C)cc5c4=O)[C@@H]3C(=O)O)cc2)c1` (racemic) [Example 97, (+/−)-(1RS,2RS,5SR)-2-{4-[(3-Methylbenzyl)oxy]benzoyl}-5-[(6-methyl-4-oxo-1,2,3-benzotriazin-3(4H)-yl)methyl]cyclopentanecarboxylic acid]: the IC50 against MMP-1 is greater than 40000 nM; at MMP-3 it was 2000 nM; against MMP-7 it was 1500 nM; at MMP-8, 310 nM.

The values above are taken from patent publication US20170022171A1, “2,5-DISUBSTITUTED CYCLOPENTANECARBOXYLIC ACIDS AND THEIR USE” (Bayer Pharma Aktiengesellschaft, priority 2014, published 2017).
